Earlier results as cited in patent US20050182074A1 (Pfizer Inc., priority 2004, published 2005).

Assays:
[1] = AIDS patient on antiretroviral drugs, voriconazole added
[2] = steady state pharmacokinetics of voriconazole

| SMILES | plasma concentration on addition of voriconazole [1] | effect on voriconazole exposure [2] |
| --- | --- | --- |
| CC(C)CN(C[C@@H](O)[C@H](Cc1ccccc1)NC(=O)O[C@H]1CCOC1)S(=O)(=O)c1ccc(N)cc1 [amprenavir] | elevated plasma concentrations |  |
| Cc1ccnc2c1NC(=O)c1cccnc1N2C1CC1 [nevirapine] | elevated plasma concentrations |  |
| COc1ccc2[nH]c([S+]([O-])Cc3ncc(C)c(OC)c3C)nc2c1 (stereo not drawn) [omeprazole] |  | no clinically relevant effect |
